The source of these data is paper PMC10709440, “High-throughput ligand profile characterization in novel cell lines expressing seven heterologous insect olfactory receptors for the detection of volatile plant biomarkers” (Scientific Reports, 2023).

The target of one test is T1, Drosophila OR47a (Drosophila melanogaster, UniProt P81921).
T1 construct: expressed in transfected cells
T1 sequence (P81921 1-385): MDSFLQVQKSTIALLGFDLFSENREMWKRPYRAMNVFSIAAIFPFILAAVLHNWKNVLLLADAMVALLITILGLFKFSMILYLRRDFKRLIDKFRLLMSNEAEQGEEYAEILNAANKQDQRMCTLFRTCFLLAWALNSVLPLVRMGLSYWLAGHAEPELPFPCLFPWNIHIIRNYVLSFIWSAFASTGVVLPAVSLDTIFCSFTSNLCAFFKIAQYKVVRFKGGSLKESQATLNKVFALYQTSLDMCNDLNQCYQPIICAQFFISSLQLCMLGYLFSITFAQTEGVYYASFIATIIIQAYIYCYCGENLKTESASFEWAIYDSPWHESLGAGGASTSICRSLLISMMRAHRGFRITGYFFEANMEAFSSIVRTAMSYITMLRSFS
T1 sequence (Q9VNB5 1-486 partner): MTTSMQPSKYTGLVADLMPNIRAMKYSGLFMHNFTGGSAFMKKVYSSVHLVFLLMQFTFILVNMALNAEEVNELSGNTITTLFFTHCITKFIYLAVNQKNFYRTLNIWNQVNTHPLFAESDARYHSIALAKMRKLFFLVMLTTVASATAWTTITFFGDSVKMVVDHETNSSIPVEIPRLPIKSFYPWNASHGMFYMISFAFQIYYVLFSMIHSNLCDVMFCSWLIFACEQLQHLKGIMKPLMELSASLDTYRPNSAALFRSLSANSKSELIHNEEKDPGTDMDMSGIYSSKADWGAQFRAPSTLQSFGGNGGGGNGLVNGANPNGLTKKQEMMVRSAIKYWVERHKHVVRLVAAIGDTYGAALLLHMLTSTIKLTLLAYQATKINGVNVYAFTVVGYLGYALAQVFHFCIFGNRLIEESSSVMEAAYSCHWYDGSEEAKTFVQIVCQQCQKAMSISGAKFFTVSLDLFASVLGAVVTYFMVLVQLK
Nature of the test: Calcium ion fluorescence (GCaMP6) assay, OR47a stable HEK293 cell line. It counts as cell-based. The conditions noted are these: for OR47a Average response (VUAA1-normalized): 50 μM VUAA1 = 1; for Average response: mean of biological replicates; for response intensity: of VUAA1 response. The gist of the method: (§1)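 Responses are VUAA1-normalized ΔF: each VOC-evoked calcium signal, (FMAX−F0)/F0 over 30 s after injection, divided by the same line's mean 50 µM VUAA1 response. Cells were doxycycline-induced HEK293 with GCaMP6 and the cognate Drosophila OR, in HEPES buffer pH 7.3; ligands tested 0.01–100 μM.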

A further test has as its target T2, Drosophila OR98a (Drosophila melanogaster, UniProt Q9VAZ3).
T2 construct: expressed in transfected cells
T2 sequence (Q9VAZ3 1-397): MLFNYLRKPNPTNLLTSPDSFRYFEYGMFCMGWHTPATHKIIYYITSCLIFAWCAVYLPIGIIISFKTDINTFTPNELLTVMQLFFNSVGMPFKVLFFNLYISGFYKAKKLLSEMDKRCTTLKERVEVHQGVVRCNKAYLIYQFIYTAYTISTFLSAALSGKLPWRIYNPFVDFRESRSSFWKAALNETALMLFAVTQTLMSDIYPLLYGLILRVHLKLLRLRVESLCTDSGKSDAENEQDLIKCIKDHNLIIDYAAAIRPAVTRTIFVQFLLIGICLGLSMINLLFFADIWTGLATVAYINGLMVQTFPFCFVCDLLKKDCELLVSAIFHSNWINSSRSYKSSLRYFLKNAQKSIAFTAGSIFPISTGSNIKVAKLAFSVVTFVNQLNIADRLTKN
T2 sequence (Q9VNB5 1-486 partner): T1 sequence (Q9VNB5 1-486 partner)
The experiment in a line: Calcium ion fluorescence (GCaMP6) assay, OR98a stable HEK293 cell line. The test is classed as cell-based. The conditions noted are these: for Average response: average of biological replicates, fraction of VUAA1 response. The gist of the method:
as §1

Where [1] appears, read: OR47a cell line, odorant cc. 1 µM.
[2] abbreviates: OR47a cell line, odorant cc. 10 µM.
The mark [3] stands for this setting: OR47a cell line, odorant cc. 100 µM.
[4] abbreviates: ligand concentration 1 (unit not given), threshold 0.05, below shown as 0.
Setting [5] is: ligand concentration 10 (unit not given), threshold 0.05, below shown as 0.
Setting [6] is: ligand concentration 100 (unit not given), threshold 0.05, below shown as 0.
Where [7] appears, read: HEK293, read-out: OR47a Average response (VUAA1-normalized).
Setting [8] is: HEK293, read-out: OR47a response (VUAA1-normalized response).
The mark [9] stands for this setting: HEK293, read-out: Average response.
Setting [10] is: HEK293, read-out: OR98a Average response (VUAA1-normalized).
The mark [11] stands for this setting: HEK293, read-out: OR98a response (VUAA1-normalized response).
Setting [12] is: concentration 1, normalized fluorescence change, values below 0.05 threshold given as 0.
Setting [13] is: concentration 10, normalized fluorescence change, values below 0.05 threshold given as 0.
[14] abbreviates: concentration 100, normalized fluorescence change, values below 0.05 threshold given as 0.

Where two headings read alike, the source gives them in different places.

As to `CC/C=C/CCO` [e3-hexenol], the entries for the “OR47a Average response (VUAA1-normalized)” value on Drosophila OR47a (1 μM VOC), on Drosophila OR47a (10 μM VOC) and on Drosophila OR47a (100 μM VOC) were 0.06, 0.00 and 0.14, respectively. Further, the Average response on Drosophila OR47a (setting [1]) amounted to 0.06; on Drosophila OR47a (setting [2]), 0.00; at Drosophila OR47a (setting [3]), 0.14; at Drosophila OR98a (cc. 1 µM, OR98a cell line), 0.00; on Drosophila OR98a (cc. 10 µM, OR98a cell line) it was 0.00; on Drosophila OR98a (cc. 100 µM, OR98a cell line), 0.00. The “DF norm AVERAGE OR47a” value was 0.06256 at Drosophila OR47a (setting [4]), 0 on Drosophila OR47a (setting [5]) and 0.1396 at Drosophila OR47a (setting [6]). Further, the “DF norm AVERAGE OR98a” value on Drosophila OR98a (setting [4]), at Drosophila OR98a (setting [5]) and on Drosophila OR98a (setting [6]) was 0 in each case.

For `CC(=O)OCCC(C)C` [isopentyl acetate], the activation at 1 µM at Drosophila OR47a (setting [7]) is 0%; on Drosophila OR47a (setting [8]) it was 0%; on Drosophila OR98a (setting [9]) it was 2.74%; at Drosophila OR98a (setting [10]), 3%; at Drosophila OR98a (setting [11]), 0%. For the same molecule, the activation at 10 µM turned out to be 12% at Drosophila OR47a (setting [7]); 12% at Drosophila OR47a (setting [8]); 2.22% at Drosophila OR98a (setting [9]); 2% on Drosophila OR98a (setting [10]); 0% on Drosophila OR98a (setting [11]). For the same molecule, the activation at 100 µM on Drosophila OR47a (setting [7]) is 18%; on Drosophila OR47a (setting [8]), 18%; on Drosophila OR98a (setting [9]), 31%; on Drosophila OR98a (setting [10]), 31%; on Drosophila OR98a (setting [11]), 31%. Also, the response intensity at Drosophila OR47a (OR47a cell line, 10 μM) is 12%; at Drosophila OR47a (OR47a cell line, 100 μM), 18%. Besides, the Average response at Drosophila OR47a (setting [1]) was found to be 0.00; at Drosophila OR47a (setting [2]), 0.12; on Drosophila OR47a (setting [3]), 0.18. Moreover, the “DF norm AVERAGE OR47a” value at Drosophila OR47a (setting [4]) is 0; at Drosophila OR47a (setting [5]) it was 0.1209; on Drosophila OR47a (setting [6]), 0.1752. Moreover, the results for the “DF norm AVERAGE OR98a” value on Drosophila OR98a (setting [4]), at Drosophila OR98a (setting [5]) and on Drosophila OR98a (setting [6]) were 0, 0 and 0.3069, respectively.

(+)-beta-cedrene: the Average response on Drosophila OR47a (setting [1]) was 0.00; on Drosophila OR47a (setting [2]), 0.00; on Drosophila OR47a (setting [3]), 0.00; on Drosophila OR98a (cc. 1 µM, OR98a cell line) it was 0.0855; at Drosophila OR98a (cc. 10 µM, OR98a cell line), 0.06; at Drosophila OR98a (cc. 100 µM, OR98a cell line), 0.06. Besides, the “OR47a response (VUAA1-normalized response)” value on Drosophila OR47a (VOC concentration 1 μM), on Drosophila OR47a (VOC concentration 10 μM) and on Drosophila OR47a (VOC concentration 100 μM) was 0.00 throughout. Also, the “DF norm AVERAGE OR47a” value on Drosophila OR47a (setting [12]), on Drosophila OR47a (setting [13]) and on Drosophila OR47a (setting [14]) was 0 throughout. For the same molecule, the “OR98a response (VUAA1-normalized response)” value at Drosophila OR98a (VOC concentration 1 μM) is 0.0855; on Drosophila OR98a (VOC concentration 10 μM), 0.06; on Drosophila OR98a (VOC concentration 100 μM) it was 0.06. The figures for the “DF norm AVERAGE OR98a” value on Drosophila OR98a (setting [12]), on Drosophila OR98a (setting [13]) and on Drosophila OR98a (setting [14]) were 0.08554, 0.05985 and 0.06078, respectively.

Regarding `Cc1cccc(O)c1` [3-methylphenol], the activation at 1 µM at Drosophila OR47a (setting [8]) turned out to be 0%; at Drosophila OR98a (setting [9]), 4.63%; on Drosophila OR98a (setting [11]), 0%. For the same molecule, the activation at 10 µM is 0% at Drosophila OR47a (setting [8]), 4.61% on Drosophila OR98a (setting [9]) and 0% on Drosophila OR98a (setting [11]). Further, the activation at 100 µM on Drosophila OR47a (setting [8]) was 0%; on Drosophila OR98a (setting [9]), 6%; at Drosophila OR98a (setting [11]), 6%. Further, the Average response at Drosophila OR47a (setting [1]), at Drosophila OR47a (setting [2]) and on Drosophila OR47a (setting [3]) was 0.00 in each case. In addition, the “DF norm AVERAGE OR47a” value at Drosophila OR47a (setting [12]), at Drosophila OR47a (setting [13]) and at Drosophila OR47a (setting [14]) was 0 throughout. In addition, the entries for the “DF norm AVERAGE OR98a” value at Drosophila OR98a (setting [12]), on Drosophila OR98a (setting [13]) and on Drosophila OR98a (setting [14]) were 0, 0 and 0.05828, respectively.

For the molecule `C=C(C)[C@H]1CC=C(C)CC1` [(R)-(+)-limonene], the Average response on Drosophila OR47a (setting [1]) stood at 0.05; on Drosophila OR47a (setting [2]) it was 0.0529; on Drosophila OR47a (setting [3]), 0.00; at Drosophila OR98a (cc. 1 µM, OR98a cell line), 0.03; on Drosophila OR98a (cc. 10 µM, OR98a cell line), 0.00; on Drosophila OR98a (cc. 100 µM, OR98a cell line), 0.03. Moreover, the “OR47a response (VUAA1-normalized response)” value on Drosophila OR47a (VOC concentration 1 μM) was 0.00; on Drosophila OR47a (VOC concentration 10 μM) it was 0.0529; at Drosophila OR47a (VOC concentration 100 μM) it was 0.00. The “DF norm AVERAGE OR47a” value at Drosophila OR47a (setting [12]) was 0; on Drosophila OR47a (setting [13]), 0.05286; at Drosophila OR47a (setting [14]), 0. In addition, the “OR98a response (VUAA1-normalized response)” value at Drosophila OR98a (VOC concentration 1 μM), at Drosophila OR98a (VOC concentration 10 μM) and on Drosophila OR98a (VOC concentration 100 μM) was 0.00 in each case. For the same molecule, the “DF norm AVERAGE OR98a” value on Drosophila OR98a (setting [12]), on Drosophila OR98a (setting [13]) and on Drosophila OR98a (setting [14]) was 0 throughout.

As to `COC(=O)c1ccccc1` [methyl benzoate], the “OR47a response (VUAA1-normalized) at 1 μM” value at Drosophila OR47a (OR47a cell line, VOC concentration 1 μM) is on record as 0.00. Moreover, the “OR47a response (VUAA1-normalized) at 10 μM” value at Drosophila OR47a (OR47a cell line, VOC concentration 10 μM) is 0.00. Moreover, the “OR47a response (VUAA1-normalized) at 100 μM” value on Drosophila OR47a (OR47a cell line, VOC concentration 100 μM) was 0.06. The figures for the Average response at Drosophila OR47a (setting [1]), at Drosophila OR47a (setting [2]) and on Drosophila OR47a (setting [3]) were 0.0138, 0.00 and 0.06, respectively. Moreover, the “DF norm AVERAGE OR47a” value is 0 at Drosophila OR47a (setting [4]), 0 on Drosophila OR47a (setting [5]) and 0.05948 at Drosophila OR47a (setting [6]). Also, the activation at 1 µM on Drosophila OR98a (setting [9]) is 7.5%; at Drosophila OR98a (setting [10]), 7%. The activation at 10 µM at Drosophila OR98a (setting [9]) and on Drosophila OR98a (setting [10]) was 0% each time. Also, the activation at 100 µM on Drosophila OR98a (setting [9]) and on Drosophila OR98a (setting [10]) was 12% in each case. At Drosophila OR98a (OR98a cell line, VOC concentration 1 μM), the “OR98a response (VUAA1-normalized) at 1 μM” value amounted to 0.075. The “OR98a response (VUAA1-normalized) at 10 μM” value on Drosophila OR98a (OR98a cell line, VOC concentration 10 μM) is reported as 0.00. At Drosophila OR98a (OR98a cell line, VOC concentration 100 μM), the “OR98a response (VUAA1-normalized) at 100 μM” value is 0.12. Moreover, the “DF norm AVERAGE OR98a” value at Drosophila OR98a (setting [4]) is reported as 0.07495; on Drosophila OR98a (setting [5]), 0; on Drosophila OR98a (setting [6]), 0.1166.
